How the values were obtained:
bedstraw = experiment: Test B pre/postemergence bedstraw; type: in vivo, Galium aparine
Procedure, shortened: (§1)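 Herbicidal effect was estimated by eye on a ten-point control scale after plants spent twelve to sixteen days in a greenhouse following soil or foliar treatment. Foliar sprays targeted plants at one to four leaves; all doses were formulated in a non-phytotoxic solvent with surfactant.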

blackgrass = experiment: Test B pre/postemergence blackgrass; type: in vivo, Alopecurus myosuroides
Procedure, shortened: as §1

surinam grass = experiment: Test B pre/postemergence surinam grass; type: in vivo, Brachiaria decumbens
Procedure, shortened: as §1

cocklebur = experiment: Test B pre/postemergence cocklebur; type: in vivo, Xanthium strumarium
Procedure, shortened: as §1

corn = experiment: Test B pre/postemergence corn; type: in vivo, Zea mays
Procedure, shortened: as §1

crabgrass = experiment: Test B pre/postemergence crabgrass; type: in vivo, Digitaria sanguinalis
Procedure, shortened: as §1

morningglory = experiment: Test B pre/postemergence morningglory; type: in vivo, Ipomoea hederacea
Procedure, shortened: as §1

pigweed = experiment: Test B pre/postemergence pigweed; type: in vivo, Amaranthus retroflexus
Procedure, shortened: as §1

rape = experiment: Test B pre/postemergence rape; type: in vivo, Brassica napus
Procedure, shortened: as §1

sugar beet = experiment: Test B pre/postemergence sugar beet; type: in vivo, Beta vulgaris
Procedure, shortened: as §1

velvetleaf = experiment: Test B pre/postemergence velvetleaf; type: in vivo, Abutilon theophrasti
Procedure, shortened: as §1

wheat = experiment: Test B pre/postemergence wheat; type: in vivo, Triticum aestivum
Procedure, shortened: as §1

wild oat = experiment: Test B pre/postemergence wild oat; type: in vivo, Avena fatua
Procedure, shortened: as §1

purple nutsedge = experiment: Test B pre/postemergence purple nutsedge; type: in vivo, Cyperus rotundus
Procedure, shortened: as §1

smallflower flatsedge = experiment: Test B flood test smallflower flatsedge; type: in vivo, Cyperus difformis
Procedure, shortened: (§2)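 Flood test on plants grown to the 2-leaf stage; treated plants kept in greenhouse twelve to sixteen days, then visually rated against controls on a 0 (no effect) to 10 (complete control) scale.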

duck salad = experiment: Test B flood test duck salad; type: in vivo, Heteranthera limosa
Procedure, shortened: as §2

[1] = Postemergence, Rate 62 g/ha, scale of 0 to 10, 0 is no effect, 10 is complete control
[2] = Postemergence, Rate 125 g/ha, scale 0 to 10, 0 is no effect, 10 is complete control
[3] = Postemergence, Rate 500 g/ha, scale of 0 to 10 where 0 is no effect and 10 is complete control
[4] = Preemergence, Rate 62 g/ha, scale 0 to 10 (0 no effect, 10 complete control)
[5] = Preemergence, Rate 125 g/ha, scale 0 to 10, 0 is no effect, 10 is complete control
[6] = Preemergence, Rate 500 g/ha, scale of 0 to 10 where 0 is no effect and 10 is complete control
[7] = Rate 250 g/ha, Postemergence, scale of 0 to 10 where 0 is no effect and 10 is complete control
[8] = Rate 62 g/ha, flood test species, Pre-emergence, visual evaluation after twelve to sixteen days
[9] = Rate 125 g/ha, under heading Pre-emergence, flood test species, visual evaluation after twelve to sixteen days
[10] = Rate 250 g/ha, Pre-emergence (flood test species), scale 0 to 10, 0 is no effect, 10 is complete control
[11] = Rate 500 g/ha, Pre-emergence section of Table B, 0 to 10 scale (0 no effect, 10 complete control)

CCCCn1c(=O)on(C(=O)N(c2ccccc2)C(C)C)c1=O [Compound 556]
Bedstraw plant response rating (bedstraw; [1]): 0 | Bedstraw plant response rating (bedstraw; [2]): 0 | Plant response rating, Bedstraw (bedstraw; [3]): 0 | Bedstraw plant response rating (bedstraw; [4]): 0 | Bedstraw plant response rating (bedstraw; [5]): 0 | Bedstraw plant response rating (0 to 10 scale) (bedstraw; Preemergence, Rate 250 g/ha): 0 | Bedstraw plant response rating (bedstraw; [6]): 0 | Plant response rating, Bedstraw (bedstraw; [7]): 0 | Blackgrass plant response rating (blackgrass; [1]): 0 | Blackgrass plant response rating (blackgrass; [2]): 3 | Plant response rating, Blackgrass (blackgrass; [3]): 6 | Blackgrass plant response rating (blackgrass; [4]): 6 | Blackgrass plant response rating (blackgrass; [5]): 9 | Blackgrass plant response rating (0 to 10 scale) (blackgrass; Preemergence, Rate 250 g/ha): 10 | Blackgrass plant response rating (blackgrass; [6]): 10 | Plant response rating, Blackgrass (blackgrass; [7]): 3 | B. signalgrass plant response rating (surinam grass; [1]): 0 | B. signalgrass plant response rating (surinam grass; [2]): 2 | Plant response rating, B. signalgrass (surinam grass; [3]): 7 | B. signalgrass plant response rating (surinam grass; [4]): 6 | B. signalgrass plant response rating (surinam grass; [5]): 7 | B. signalgrass plant response rating (0 to 10 scale, 0 is no effect, 10 is complete control) (surinam grass; Preemergence, Rate 250 g/ha): 7 | B. signalgrass plant response rating (surinam grass; [6]): 9 | Plant response rating, B. signalgrass (surinam grass; [7]): 4 | Cocklebur plant response rating (cocklebur; [1]): 0 | Cocklebur plant response rating (cocklebur; [2]): 0 | Plant response rating, Cocklebur (cocklebur; [3]): 0 | Cocklebur plant response rating (cocklebur; [4]): 0 | Cocklebur plant response rating (cocklebur; [5]): 0 | Cocklebur plant response rating (0 to 10 scale) (cocklebur; Preemergence, Rate 250 g/ha): 0 | Cocklebur plant response rating (cocklebur; [6]): 0 | Plant response rating, Cocklebur (cocklebur; [7]): 0 | Corn plant response rating (corn; [1]): 0 | Corn plant response rating (corn; [2]): 0 | Plant response rating, Corn (corn; [3]): 0 | Corn plant response rating (corn; [4]): 0 | Corn plant response rating (corn; [5]): 0 | Corn plant response rating (0 to 10 scale) (corn; Preemergence, Rate 250 g/ha): 0 | Corn plant response rating (corn; [6]): 0 | Plant response rating, Corn (corn; [7]): 0 | Crabgrass plant response rating (crabgrass; [1]): 0 | Crabgrass plant response rating (crabgrass; [2]): 2 | Plant response rating, Crabgrass (crabgrass; [3]): 2 | Crabgrass plant response rating (crabgrass; [4]): 9 | Crabgrass plant response rating (crabgrass; [5]): 9 | Crabgrass plant response rating (0 to 10 scale) (crabgrass; Preemergence, Rate 250 g/ha): 9 | Crabgrass plant response rating (crabgrass; [6]): 10 | Plant response rating, Crabgrass (crabgrass; [7]): 2 | Morningglory plant response rating (morningglory; [1]): 0 | Morningglory plant response rating (morningglory; [2]): 2 | Plant response rating, Morningglory (morningglory; [3]): 10 | Morningglory plant response rating (morningglory; [4]): 0 | Morningglory plant response rating (morningglory; [5]): 0 | Morningglory plant response rating (0 to 10 scale) (morningglory; Preemergence, Rate 250 g/ha): 0 | Morningglory plant response rating (morningglory; [6]): 0 | Plant response rating, Morningglory (morningglory; [7]): 4 | Redroot pigweed plant response rating (pigweed; [1]): 3 | Plant response rating, Redroot pigweed (pigweed; [3]): 4 | Redroot pigweed plant response rating (pigweed; [4]): 0 | Redroot pigweed plant response rating (pigweed; [5]): 5 | Redroot pigweed plant response rating (0 to 10 scale) (pigweed; Preemergence, Rate 250 g/ha): 5 | Redroot pigweed plant response rating (pigweed; [6]): 5 | Plant response rating, Redroot pigweed (pigweed; [7]): 3 | Rape plant response rating (rape; [1]): 0 | Rape plant response rating (rape; [2]): 0 | Plant response rating, Rape (rape; [3]): 2 | Rape plant response rating (rape; [4]): 0 | Rape plant response rating (rape; [5]): 3 | Rape plant response rating (0 to 10 scale) (rape; Preemergence, Rate 250 g/ha): 3 | Rape plant response rating (rape; [6]): 8 | Plant response rating, Rape (rape; [7]): 0 | Sugarbeets plant response rating (sugar beet; [1]): 0 | Plant response rating, Sugarbeets (sugar beet; [3]): 0 | Sugarbeets plant response rating (sugar beet; [4]): 0 | Sugarbeets plant response rating (sugar beet; [5]): 0 | Sugarbeets plant response rating (0 to 10 scale) (sugar beet; Preemergence, Rate 250 g/ha): 0 | Sugarbeets plant response rating (sugar beet; [6]): 0 | Plant response rating, Sugarbeets (sugar beet; [7]): 0 | Velvetleaf plant response rating (velvetleaf; [1]): 0 | Plant response rating, Velvetleaf (velvetleaf; [3]): 2 | Velvetleaf plant response rating (velvetleaf; [4]): 0 | Velvetleaf plant response rating (velvetleaf; [5]): 2 | Velvetleaf plant response rating (0 to 10 scale) (velvetleaf; Preemergence, Rate 250 g/ha): 3 | Velvetleaf plant response rating (velvetleaf; [6]): 3 | Plant response rating, Velvetleaf (velvetleaf; [7]): 0 | Wheat plant response rating (wheat; [1]): 0 | Plant response rating, Wheat (wheat; [3]): 3 | Wheat plant response rating (wheat; [4]): 0 | Wheat plant response rating (wheat; [5]): 0 | Wheat plant response rating (0 to 10 scale) (wheat; Preemergence, Rate 250 g/ha): 3 | Wheat plant response rating (wheat; [6]): 4 | Plant response rating, Wheat (wheat; [7]): 2 | Wild oats plant response rating (wild oat; [1]): 2 | Plant response rating, Wild oats (wild oat; [3]): 2 | Wild oats plant response rating (wild oat; [4]): 0 | Wild oats plant response rating (wild oat; [5]): 0 | Wild oats plant response rating (0 to 10 scale) (wild oat; Preemergence, Rate 250 g/ha): 4 | Wild oats plant response rating (wild oat; [6]): 6 | Plant response rating, Wild oats (wild oat; [7]): 2 | Nutsedge plant response rating (purple nutsedge; [1]): 0 | Nutsedge plant response rating (purple nutsedge; [2]): 0 | Plant response rating, Nutsedge (purple nutsedge; [3]): 0 | Nutsedge plant response rating (purple nutsedge; [4]): 0 | Nutsedge plant response rating (purple nutsedge; [5]): 0 | Nutsedge plant response rating (0 to 10 scale) (purple nutsedge; Preemergence, Rate 250 g/ha): 0 | Nutsedge plant response rating (purple nutsedge; [6]): 0 | Plant response rating, Nutsedge (purple nutsedge; [7]): 0 | Plant response rating, S. Flatsedge (0 to 10 scale, 0 is no effect, 10 is complete control) (smallflower flatsedge; [8]): 0 | S. Flatsedge plant response rating (0 to 10 scale, 0 is no effect, 10 is complete control) (smallflower flatsedge; [9]): 0 | S. Flatsedge plant response rating (smallflower flatsedge; [10]): 0 | S. Flatsedge plant response rating (smallflower flatsedge; [11]): 0 | Plant response rating, Ducksalad (0 to 10 scale, 0 is no effect, 10 is complete control) (duck salad; [8]): 0 | Ducksalad plant response rating (0 to 10 scale, 0 is no effect, 10 is complete control) (duck salad; [9]): 0 | Ducksalad plant response rating (duck salad; [10]): 0 | Ducksalad plant response rating (duck salad; [11]): 0

Source: patent publication US6737383B1, “Herbicidal oxadiazolidines” (priority 1999, dated 2004)
